From US5376658A, “5,10-methylene-tetrahydrofolate as a modulator of a chemotherapeutic agent” (priority 1993, dated 1994)
Where two headings read alike, the source gives them in different places. Values belong to the compound of their own block, whether it stands above or below them.

Columns and labels:
[1] = system: transplanted colon cancer; assay: Comparison of natural and unnatural CH2 FH4 diastereomers in rats bearing transplanted colon cancer; type: in vivo, rat; conditions: 15 mg/kg, Day 17, no fluorinated pyrimidine
Description: A study has been completed, for comparison of natural (6R)-CH2 FH4 and unnatural (6S)-CH2 FH4 diastereomers. The preparation of the two forms was done as described by Kisliuk, et al., Cancer Treat. Rep. 61:647-50 (1977), using DEAE-cellulose column chromatography, with elution by potassium bicarbonate buffer. The two separate major peaks were individually pooled, lyophilized to dryness, and used for injection. As in the original detailed description of the method of Kisliuk, et al. (Biochem. 20:929-934), the methylene content was substoichiometric with tetrahydrofolate (FH4). That is, methylene units were present in apparently lower concentration than FH4 concentrations.
Rats bearing the transplanted colon cancer, as described in Example 4 and in Carlsson, et al., Anticancer. Res. 10:813-816, 1991, were treated with either the (6R)-CH2 FH4 or the (6S)-CH2 FH4, formulated and injected according to the methods described in Table IV, except that the injected amounts were 15 mg/kg per dose.
At Day 17, the rats were sacrificed, and the tumors were measured for both volume end weight. Volumes were calculated by the equation for an ellipsoid in revolution, V=(4/3)πab^2 were a=the long diameter/2 and b=the perpendicular short diameter/2.
The filled circles are the weights and volumes of tumors of rats treated with the unnatural (6S)-CH2 FH4 diastereomer (mostly (6R)-FH4 material in dilute solution and blood); the triangles are results for the natural (6R)-CH2 FH4 (mostly (6S)-FH4); and the open circles, control non-treated tumors. It is emphasized here that no fluorinated pyrimidine was used, just the folate injections.

L. casei TS = biological target: T1, L. casei TS (Lacticaseibacillus casei, UniProt P00469); assay: L. casei/dUMP spectrophotometric cofactor assay; type: biochemical
T1 construct: spectrophotometric cofactor assay with dUMP
T1 sequence (P00469 1-316): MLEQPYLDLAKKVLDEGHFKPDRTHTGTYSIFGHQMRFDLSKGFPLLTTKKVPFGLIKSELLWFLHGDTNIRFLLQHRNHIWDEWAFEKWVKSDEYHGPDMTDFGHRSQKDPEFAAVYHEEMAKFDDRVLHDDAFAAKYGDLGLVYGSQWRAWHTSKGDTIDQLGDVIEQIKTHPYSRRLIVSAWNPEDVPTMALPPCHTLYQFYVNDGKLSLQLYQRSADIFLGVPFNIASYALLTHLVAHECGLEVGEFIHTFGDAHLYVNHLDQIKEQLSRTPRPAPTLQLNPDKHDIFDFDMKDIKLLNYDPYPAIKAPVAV
Protocol: CH2 FH4 as the equal mixture of diastereomers (optical isomers or enantiomers at the C6-position; both diastereomers are of the natural L-configuration at the alpha-carbon position of the glutamate moiety) was prepared from (6R,S)-tetrahydrofolic acid, commercially available from Sigma, in the examples described below. The method of synthesis has been described previously (C. P. Spears and B. Gustavsson, Adv. Exp. Med. Biol. 244:98-104 (1988)). To (6R, S)-tetrahydrofolate (6R, S-FH4) powder, (100 mg) is added 360 μL of 1.0M Na Ascorbate, pH 6.5, 68 μL of 37% (w/w) formaldehyde (CH2 O), and 16 mL phosphate buffer, pH 7.0. A 10-min room temperature incubation allows completion of formation of (6R,S)-CH2 FH4. This material is applied to a DEAE-cellulose column using a modification of a well-known procedure (Kaufman et al., J. Biol. Chem. 238:1498-1500 (1963)). A step elution with NH4 HCO3 buffers of increasing concentration and pH, leads to isolation of CH2 FH4 in the last pooled fraction. […] CH2 FH4, prepared with [^14 C]CH2 O as described previously (Moran et al. Proc. Natl. Acad. Sci. USA 76:1456-60, 1979). […]

L. casei TS-[3H]FdUMP = biological target: T2, L. casei TS-[3H]FdUMP (Lacticaseibacillus casei, UniProt P00469); assay: TS-[3H]FdUMP-folate ternary complex binding assay
T2 sequence (P00469 1-316): T1 sequence (P00469 1-316)
Protocol: The CH2 FH4 was prepared as the racemic (6R, S) material from (6R, S)-FH4 and excess formaldehyde, and DEAE-column isolation as described in FIG. 1. This preparation was essentially free of free formaldehyde based on colorimetric assay of bulk material (Nash, Biochem. J. 55:416-21 (1953)).
At all concentrations (total assays volume 150 μl ), excess formaldeyde was required to obtain maximal binding (which was still only 19.3% of stoichiometric binding). A notable effect was the increasing need for formaldehyde addition with increasing dilution, to obtain maximal CH2 FH4 assay recovery.
TS[^3 H]FdUMP-folate ternary complex formation without formaldehyde
addition was 38.5% of the value for the natural (6R)CH2 FH4 wit
6 mM formaldehyde added. (About 1 pmole of parent CH2 FH4 was
^b Only 11.8 ± 7.9% of maximal L. casei TS[^3 H]FdUMP-folate
ternary complex formation (using 6 mM formaldehyde concentration) which i
(§1) The unnatural diastereomer, (6S)-CH2 FH4 prepared by DEAE-column,potassium bicarbonate separation from the natural diasteromer as described in Example 8, was dissolved in 0.2M Tris-HCl buffer, pH 7.0, containing sodium ascorbate (100 mM) and 2-mercaptoethanol. This preparation was from the same lot of material described in Example 8. As noted in the footnote of Table VII, in the absence of supplemental formaldehyde, the yield of dextrancharcoal isolated complex was 38.5% of the value for the natural (6R)-CH2 FH4 (with added 6 mM formaldehyde).

TS = biological target: T3, TS (Homo sapiens, UniProt P04818); assay: TS activity in intact CCRF-CEM human lymphoblast cells by tritiated water release from [5-3H]deoxyuridine; type: cell-based; conditions: for tritiated water production: 48 μM; for remaining activity at 48 µM: read-out: tritiated water production, % of control
T3 construct: activity of TS in the intact cells; endogenous in cells; host or cells: CCRF-CEM human lymphoblast cells
Protocol: as §1
Separate cultures tubes at 37° C. with 1 ml each of CCRF-CEM human lymphoblast cells, 4.6×10^5 cells/ml, in exponential log phase growth were exposed to the unnatural diastereomer, (6R)-FH4 (made up from (6S)-CH2 FH4, 1.56 mM stock solution, with 32 microliters added to each ml of cells), 48 μM final concentration. Cells were incubated for 30, 60, and 120 minutes of drug exposure, prior to addition of [5-^3 H]deoxyuridine (150,000 CPM of approx. 18-20 Ci/mmo. spec. act.) and 10 min. 37° C. incubation prior to 3% charcoal addition for isolation of tritiated water. The amount of tritiated water is proportional to the activity of TS in the intact cells (N. Kundu et al., J. Med. Chem. 33:1975-79 (1990)).

[2] = humans; cited from earlier work
[3] = system: CH2 FH4 and FH4 in breast cancer biopsies; assay: CH2 FH4 and FH4 levels in breast cancer biopsies during L-serine infusion after high-dose (6R,S)-leucovorin; type: in vivo, human; parameters: CH2 FH4 / FH4: unit not given here
Protocol: (§2) As noted previously (see pages 5-6) and mentioned in C. P. Spears, et al., Proc. Am. Soc. Clin. Oncol. 8:69 (1989), the inventors have used pharmacologic intervention to convert intracellular FH4 to CH2 FH4 in patients receiving high-dose reduced folate therapy combined with weekly i.v. bolus 5-FU, 450 mg/sq. m. The method used was administration of i.v. L-serine, 15.0 grams, over 1 hour after the end of overnight high-dose (6R,S)-leucovorin i.v. infusion.
In contrast to the data shown in Tables II and III, the inventors were able to also assay for intratumoral FH4 in addition to CH2 FH4 (this latter is also referred to as "FBC" in those Tables or Folate-Binding Capacity), at time points during this pharmacologic forcing of metabolism of FH4 to CH2 FH4 through the enzyme, serine hydroxymethyltransferase. This enzyme splits a carbon of L-serine to generate formaldehyde in the presence of FH4.
^a Minutes after initiation of 15.0 gram LSerine i.v. 60min infusion,
after end of overnight (6R,S)leucovorin highdose i.v. infusion.
^b Assays performed as described (C.P. Spears et al., Adv. Exp. Med.

breast cancer = assay: Clinical effect in patients receiving 5-FU plus high-dose (6R,S)-leucovorin with L-serine or glycine; type: in vivo, human; conditions: person; L-serine i.v. added to 5-FU/(6R,S)-leucovorin, subsequently glycine 10 grams i.v.
Protocol: as §2, with “Soc.” left out

[4] = Dimedone trapping of labile 14CH2O group on dilution; type: physicochemical; conditions: 46,664 DPM diluted to 1 ml in H2O, 37° C.
Description: This requirement for a large excess of formaldehyde to shift the equilibrium between FH4 and CH2 FH4 (Eq. 1) was found by the inventors to
be independent of temperature, pH or the formaldehyde content of charcoal isolation, the presence of air exposure, or the presence of reducing agents. In addition, [11-^14 C]CH2 FH4 prepared as described (Moran et al., Proc. Natl. Acad. Sci. USA 76:1456-60 (1979)), and DEAE-purified (as the concentrated material) of excess ^14 CH2 O, was confirmed to have a labile ^14 CH2 O group by dimedone trapping.

gastrointestinal cancers = conditions: human, in vivo; cited from earlier work
[5] = patient four, 25 min after initiation of 15.0 g L-serine i.v.
[6] = patient four, 82 min after initiation of 15.0 g L-serine i.v.
[7] = patient two, 22 min after initiation of 15.0 g L-serine i.v.
[8] = patient two, 65 min after initiation of 15.0 g L-serine i.v.

T3 sequence (P04818 whole entry): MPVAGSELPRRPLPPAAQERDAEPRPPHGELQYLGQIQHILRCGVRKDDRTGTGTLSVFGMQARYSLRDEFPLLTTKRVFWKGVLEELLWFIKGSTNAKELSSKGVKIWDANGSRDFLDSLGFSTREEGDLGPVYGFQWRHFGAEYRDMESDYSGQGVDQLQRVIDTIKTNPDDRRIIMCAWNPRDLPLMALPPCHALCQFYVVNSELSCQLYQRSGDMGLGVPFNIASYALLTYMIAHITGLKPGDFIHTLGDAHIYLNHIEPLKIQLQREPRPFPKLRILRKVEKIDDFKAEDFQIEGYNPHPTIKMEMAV

cofactor activity (L. casei TS): No cofactor activity
TS-[3H]FdUMP-ternary complex yield, % of value for natural (6R)-CH2 FH4 with 6 mM formaldehyde (L. casei TS-[3H]FdUMP; in the presence of formaldehyde): 23.3%
TS-[3H]FdUMP-folate ternary complex formation, % of value for natural (6R)-CH2 FH4 with 6 mM formaldehyde (L. casei TS-[3H]FdUMP; without formaldehyde addition): 38.5%
tritiated water production (TS; 30 min exposure, control 2566): 2004 CPM
tritiated water production (TS; 60 min exposure, control 2662): 1750 CPM
tritiated water production (TS; 120 min exposure, control 2902): 1146 CPM
remaining activity at 48 µM (TS; CCRF-CEM, 30 min): 78.1%
remaining activity at 48 µM (TS; CCRF-CEM, 60 min): 65.7%
remaining activity at 48 µM (TS; CCRF-CEM, 120 min): 39.5%
inhibition at 48 µM (TS; CCRF-CEM, two hour time point): 60.5%
Structure (SMILES): Nc1nc2c(c(=O)[nH]1)N1CN(c3ccc(C(=O)N[C@@H](CCC(=O)O)C(=O)O)cc3)C[C@@H]1CN2 [(6S)-CH2 FH4]
Tumor volume ± SE ([1]; control 7.81): 0.74
Tumor weight ± SE ([1]; control 7.93): 2.14

Structure (SMILES): C=O [CH2 O, formaldehyde]
oral LDLo (lowest lethal dose) [2]: 36 mg/kg

Structure (SMILES): N[C@@H](CO)C(=O)O [L-serine]
Ratio of FH4/CH2 FH4 ([3]; patient four, 25 min): 2.9
CH2 FH4 [3, 5]: 0.396
FH4 [3, 5]: 1.128
Ratio of FH4/CH2 FH4 ([3]; patient four, 82 min): 3.0
CH2 FH4 [3, 6]: 0.475
FH4 [3, 6]: 1.420
Ratio of FH4/CH2 FH4 ([3]; patient two, 22 min): 3.4
CH2 FH4 [3, 7]: 0.253
FH4 [3, 7]: 0.854
Ratio of FH4/CH2 FH4 ([3]; patient two, 65 min): 2.7
CH2 FH4 [3, 8]: 0.340
FH4 [3, 8]: 0.907
Clinical effect, third patient (breast cancer): rapid acceleration of objective tumor growth and tumor symptoms

label recoverable by chloroform extraction of dimedone (methone) product [4]: 67.8%
Structure (SMILES): Nc1nc2c(c(=O)[nH]1)N1[14CH2]N(c3ccc(C(=O)N[C@@H](CCC(=O)O)C(=O)O)cc3)CC1CN2 (stereo partly shown) [[11-^14 C]-CH2 FH4]

Structure (SMILES): Nc1nc2ncc(CNc3ccc(C(=O)N[C@@H](CCC(=O)O)C(=O)O)cc3)nc2c(=O)[nH]1 [folic acid]
effect of addition to 5-FU therapy (gastrointestinal cancers): increase in toxicity without improved response rates
